Source: US20240199698A1, “PEPTIDE AMPHIPHILE COMPOSITIONS AND METHODS OF USE THEREOF” (UAB RESEARCH FOUNDATION, priority 2022, published 2024)

Experiments:
[1] = tested on: patients with myocardial infarction or chronic coronary disease; settings: cited from earlier work
[2] = tested on: diseased hAECs (TNF-α stimulated); assay: Effects of colchicine on diseased EC function (NO production, DAF-FM); type: cell-based, human; settings: tested 10, 20, 40, 80, 160 nM; three days; versus diseased hAECs without colchicine
Method: Experiment approach: hAECs were seeded in 48-well plate at a cell density of 5000 per well and allowed to attach and grow for 24 h to create a stable confluent monolayer of hAECs (hereafter the “endothelium”). Then, the diseased hAECs (“diseased endothelium”) were obtained by stimulating the hAECs with TNF-α (20 ng/mL) for 18 hours. After that, the colchicine at concentrations of 10 nM, 20 nM, 40 nM, 80 nM, and 160 nM was added to the hAECs after TNF-α stimulation, and then the hAECs were cultured for another three days. Then, the diseased hAEC function was assessed by measuring NO production by hAECs using DAF-FM (4-amino-5-methylamino-2′,7′-difluororescein). DAF-FM is essentially nonfluorescent until they react with NO to form a fluorescent benzotriazole. DAF-FM is cell-permeant and passively diffuses across cellular membranes. Once inside cells, it is de-acetylated by intracellular esterases. The fluorescence quantum yield of DAF-FM is —0.005, but increases about 160-fold, to ˜0.81, after reacting with nitric oxide. With excitation/emission maxima of 495/515 nm, DAF-FM can be detected by any instrument that can detect fluorescein, including fluorescent microplate readers. […] After the de-esterification, the fluorescence intensity of DAF-FM in hAECs was measured at (excitation/emission) 495/515 nm.

[3] = tested on: U937 cells; assay: Effects of colchicine on foam cell formation (Bodipy); type: cell-based; settings: tested 0, 2, 5, 10, 20, 40 nM; Ox-LDL 100 ug/mL, 3 days
Method: Experimental approach: U937 cells with a cell density of 5000 cell/well were seeded in a 48 well plate, then the colchicine with a selected concentration range from 0 to 40 nM, that is 0, 2 nM, 5 nM, 10 nM, 20 nM, and 40 nM, were added into each well-containing monocytes and RAMPI monocyte culture medium. Then each well were added with M-CSF (100 ng/mL), GM-CSF (25 ng/mL) and INF-γ (100 ng/mL) for macrophage formation. After 7 days of culture, then Ox-LDL (100 ug/mL) was added to each well and cultured for 3 days. After 3 days of culture, the effect of […] on foam cell formation was assessed by using Bodipy. It was shown that the suppression of foam cells was observed when the colchicine concentration is above 2 nM, that is, at the concentrations of 5 nM, 10 nM, 20 nM, and 40 nM (FIG. 18B)

[4] = cited from earlier work
[5] = tested on: HAECs; assay: hAEC proliferation, CyQUANT Cell Proliferation Assay; type: cell-based, human; settings: sirolimus 0-50 nM, with or without 10 -9 M NO, three days
Method: Preparation of NO. The peptide amphiphiles (PA-C16-CA and PA-C16-K5) were synthesized, respectively. These two distinct PAs were mixed in a 9:1 ratio (YIGSR:KKKKK) to form PA-C16-YK5, which was subsequently reacted with NO gas to form PA-YK-NO. The released NO was collected, and NO concentration was measured using Greiss Assay.
Treatment on hAEC. hAECs were seeded in a 48-well plate at a cell density of 2000 per well and allowed to attach for 24 h (hereafter the “endothelium”). For the sirolimus-only group, the sirolimus at concentrations of 0, 0.25, 0.1, 0.5, 1, and 50 nM were added to the hAECs, and then the hAECs were cultured for another three days. Similarly, for the dual-treatment group, sirolimus at similar concentrations was combined with 10 -9 M NO and added to hAEC. Then, the proliferation of hAEC under different conditions was assessed by CyQUANT Cell Proliferation Assay after three days. Briefly, the culture medium in each well was removed, and the cells in the tissue culture plate were frozen overnight at −80° C.; then, the dye in the lysis buffer was added after completely thawing at room temperature. After 30 min incubation, the fluorescent signal was measured using a microplate reader at 485/528 nm.

COc1cc2c(c(OC)c1OC)-c1ccc(OC)c(=O)cc1[C@@H](NC(C)=O)CC2 [colchicine, N[5′,6,7,9-tetrahydro-1,2,3,10-tetratmethoxy 9-oxobenzo[a]heptalen-7-yl], (S)-acetamide]
composite endpoint of cardiovascular death, resuscitated cardiac arrest, myocardial infarction, stroke, or urgent hospitalization for angina (COLCOT) ([1]; 0.5 mg once daily versus placebo, myocardial infarction within 30 days): lower among those who received 0.5 mg of colchicine once daily than among those who received placebo
risk of acute cardiovascular events (LoDoCo) ([1]; 0.5 mg once daily, chronic coronary disease, open-label): lower among those who received 0.5 mg of colchicine once daily than those who did not receive colchicine
primary composite endpoint of cardiovascular mortality, myocardial infarction, ischemic stroke, and urgent revascularization (meta-analysis) ([1]; four major randomized controlled trials): significant reduction
colchicine concentration at which NO production of diseased hAECs increased [2]: above 20 nM
colchicine concentration at which suppression of foam cells was observed [3]: above 2 nM

CO[C@H]1C[C@@H]2CC[C@@H](C)[C@@](O)(O2)C(=O)C(=O)N2CCCC[C@H]2C(=O)O[C@H]([C@H](C)C[C@@H]2CC[C@@H](O)[C@H](OC)C2)CC(=O)[C@H](C)/C=C(\C)[C@@H](O)[C@@H](OC)C(=O)[C@H](C)C[C@H](C)/C=C/C=C/C=C/1C [Sirolimus]
solubility in water [4]: virtually insoluble in water
hAEC proliferation [5]: reduced the proliferation of hAECs dose-dependently
